How the values were obtained:
[1] = molecular target: T1, Sodium- and chloride-dependent glycine transporter 1 (Homo sapiens, UniProt P48067)
T1 sequence (P48067 whole entry): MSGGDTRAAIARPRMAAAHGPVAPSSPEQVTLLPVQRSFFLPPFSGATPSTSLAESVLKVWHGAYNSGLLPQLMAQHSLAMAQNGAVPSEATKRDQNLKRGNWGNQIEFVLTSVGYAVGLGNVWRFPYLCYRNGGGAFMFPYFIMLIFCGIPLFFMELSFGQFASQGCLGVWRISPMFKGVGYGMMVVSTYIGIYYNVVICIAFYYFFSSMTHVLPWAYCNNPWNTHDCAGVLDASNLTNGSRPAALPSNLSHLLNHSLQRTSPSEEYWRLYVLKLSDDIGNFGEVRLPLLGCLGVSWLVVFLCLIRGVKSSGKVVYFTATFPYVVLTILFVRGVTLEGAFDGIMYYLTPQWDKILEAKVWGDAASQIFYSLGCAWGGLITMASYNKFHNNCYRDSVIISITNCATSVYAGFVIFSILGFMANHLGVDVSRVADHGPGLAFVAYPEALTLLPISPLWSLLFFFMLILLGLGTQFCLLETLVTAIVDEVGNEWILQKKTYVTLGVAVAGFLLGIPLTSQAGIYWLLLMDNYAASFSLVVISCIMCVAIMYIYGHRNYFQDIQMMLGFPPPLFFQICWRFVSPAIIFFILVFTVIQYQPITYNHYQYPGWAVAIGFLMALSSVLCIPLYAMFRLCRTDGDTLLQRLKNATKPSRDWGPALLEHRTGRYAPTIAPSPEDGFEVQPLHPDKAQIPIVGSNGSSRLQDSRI
Description: (§1) Inhibition of [3H]glycine uptake in human GlyT1c expressed in HEK293 cells

Liver microsomes [2] = assay: Intrinsic clearance in rat liver microsome; type: ADME
Liver microsomes [3] = assay: Intrinsic clearance in human liver microsome; type: ADME
Cytochrome P450 2D6 = Cytochrome P450 2D6 (Homo sapiens, UniProt P10635); assay: Binding affinity to CYP2D6; type: ADME
[4] = Oral bioavailability in rat at 5 mg/kg; type: ADME, organism-based; settings: in vivo
Rattus norvegicus [5] = assay: Bioavailability in rat at 5 mg/kg, sc; type: ADME, organism-based; settings: in vivo
[6] = Half life in rat at 5 mg/kg, sc; type: ADME, organism-based; design: dose 5 mg/kg, route subcutaneous; settings: in vivo
[7] = Cmax in rat at 5 mg/kg, sc; type: ADME, organism-based; design: dose 5 mg/kg, route subcutaneous; settings: in vivo
Rattus norvegicus [8] = assay: AUC (0 to infinity) in rat at 5 mg/kg, sc; type: ADME, organism-based, Plasma; design: time infinity, dose 5 mg/kg, route subcutaneous; settings: in vivo
[9] = Plasma clearance in rat at 1 mg/kg, iv; type: ADME, organism-based; design: dose 1 mg/kg, route intravenous
Brain = assay: Drug level in rat brain at 5 mg/kg, sc; type: ADME, organism-based; design: dose 5 mg/kg, route subcutaneous; settings: in vivo
[10] = Half life in rat at 1 mg/kg, iv; type: ADME, organism-based; design: dose 1 mg/kg, route intravenous; settings: in vivo
Rattus norvegicus [11] = assay: AUC (0 to infinity) in rat plasma at 1 mg/kg, iv; type: ADME, organism-based; design: time infinity, dose 1 mg/kg, route intravenous; settings: in vivo
[12] = AUC (0 to infinity) in rat brain at 1 mg/kg, iv; type: ADME, organism-based; design: time infinity, dose 1 mg/kg, route intravenous
[13] = molecular target: T1, Sodium- and chloride-dependent glycine transporter 1; settings: hek293
Description: as §1

Chain of Cytochrome P450 2D6 (P10635 whole entry): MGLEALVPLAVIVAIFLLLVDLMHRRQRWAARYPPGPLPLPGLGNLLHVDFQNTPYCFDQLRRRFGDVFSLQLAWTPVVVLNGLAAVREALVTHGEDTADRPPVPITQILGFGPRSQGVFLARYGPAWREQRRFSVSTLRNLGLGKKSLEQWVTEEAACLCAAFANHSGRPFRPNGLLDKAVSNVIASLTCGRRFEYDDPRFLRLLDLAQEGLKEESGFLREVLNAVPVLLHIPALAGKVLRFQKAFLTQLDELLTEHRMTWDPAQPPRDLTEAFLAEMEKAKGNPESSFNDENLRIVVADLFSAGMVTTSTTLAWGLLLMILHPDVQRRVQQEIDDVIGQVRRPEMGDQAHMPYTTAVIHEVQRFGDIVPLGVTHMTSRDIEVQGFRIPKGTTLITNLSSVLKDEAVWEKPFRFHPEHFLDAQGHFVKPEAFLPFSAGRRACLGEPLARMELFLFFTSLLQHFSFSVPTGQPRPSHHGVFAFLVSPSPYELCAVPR

Row | Structure (SMILES) | IC50 [1] [µM] | also measured
1 | O=S(=O)(NC[C@H](O)CN1CCCC1)c1cccc2ccccc12 | 3.16 | 
2 | CC1CCCN1C[C@H](O)CNS(=O)(=O)c1cccc2ccccc12 (stereo partly drawn) | 12.6 | 
3 | CCCN(C[C@@H](O)CNS(=O)(=O)c1cccc2ccccc12)C(C)(C)C | 1 | 
4 | CCC1CCC(C)N(C[C@@H](O)CNS(=O)(=O)c2cccc3ccccc23)C1 (stereo partly drawn) | 1 | 
5 | CC1CC(C)N(C[C@@H](O)CNS(=O)(=O)c2ccc3ccccc3c2)C1 (stereo partly drawn) | 3.98 | 
6 | CC1CC(C)N(C[C@@H](O)CNS(=O)(=O)c2cccc(Cl)c2Cl)C1 (stereo partly drawn) | 2.51 | 
7 | CC1CC(C)N(C[C@@H](O)CNS(=O)(=O)c2cc(Cl)sc2Cl)C1 (stereo partly drawn) | 3.16 | 
8 | Cc1cc(S(=O)(=O)NC[C@H](O)CN2CC(C)CC2C)c(C)cc1Cl (stereo partly drawn) | 3.16 | 
9 | CCc1cc(Br)ccc1S(=O)(=O)NC[C@H](O)CN1CC(C)CC1C (stereo partly drawn) | 3.16 | 
10 | CC1CCC(C)N1C[C@H](O)CNS(=O)(=O)c1cccc2ccccc12 (stereo partly drawn) | 7.94 | 
11 | CC[C@H]1CCCCN1C[C@@H](O)CNS(=O)(=O)c1cccc2ccccc12 |  | clearance (Liver microsomes [2]): 8 mL/min/g; clearance (Liver microsomes [3]): 8 mL/min/g; Activity (Cytochrome P450 2D6): 1.2 µM; bioavailability [4]: 4%; F (Rattus norvegicus [5]): 95%; half-life [6]: 54 min; Cmax [7]: 564 ng/mL; AUC (Rattus norvegicus [8]): 1731 ng·h/mL; clearance [9]: 18 mL/min/kg; Drug uptake (Brain): 564 ng/mL; half-life [10]: 60 min; AUC (Rattus norvegicus [11]): 952 ng·h/mL; AUC(0-inf) [12]: 587 ng·h/mL
12 | CC1CCCN(C[C@@H](O)CNS(=O)(=O)c2cccc3ccccc23)C1 (stereo partly drawn) | 3.98 | 
13 | CCCN(C[C@@H](O)CNS(=O)(=O)c1cccc2ccccc12)C(C)CC (stereo partly drawn) | 1.26 | 
14 | CC1CCCCN1C[C@@H](O)CNS(=O)(=O)c1cccc2ccccc12 (stereo partly drawn) | 0.316 | 
15 | CC1CCC(C)N1C[C@@H](O)CNS(=O)(=O)c1cccc2ccccc12 (stereo partly drawn) | 0.794 | 
16 | CC1CCCN1C[C@@H](O)CNS(=O)(=O)c1cccc2ccccc12 (stereo partly drawn) | 1 | 

Row | Structure (SMILES) | IC50 [1] [µM] | also measured
17 | O=S(=O)(NC[C@H](O)CN1CCCCC1)c1cccc2ccccc12 | 3.16 | 
18 | O=S(=O)(NC[C@H](O)CN1CCCC1C1CCCCC1)c1cccc2ccccc12 (single isomer, unassigned; isomer A) |  | Log IC50 [13]: -5.2
19 | CC(C)(C)C1CCCN1C[C@@H](O)CNS(=O)(=O)c1cccc2ccccc12 (single isomer, unassigned; isomer A) | 7.94 | 
20 | CCC1CCCN1C[C@@H](O)CNS(=O)(=O)c1cccc2ccccc12 (single isomer, unassigned; isomer A) | 1.26 | 
21 | CC(C)C1CCCCN1C[C@@H](O)CNS(=O)(=O)c1cccc2ccccc12 (single isomer, unassigned; isomer A) | 3.98 | 
22 | CC(C)CC1CCCN1C[C@@H](O)CNS(=O)(=O)c1cccc2ccccc12 (single isomer, unassigned; isomer A) | 6.31 | 
23 | CC(C)C1CCCN1C[C@@H](O)CNS(=O)(=O)c1cccc2ccccc12 (single isomer, unassigned; isomer A) | 1 | 
24 | O=S(=O)(NC[C@H](O)CN1CCCC1C1CCCCC1)c1cccc2ccccc12 (single isomer, unassigned; isomer B) | 6.31 | 
25 | CC(C)(C)C1CCCN1C[C@@H](O)CNS(=O)(=O)c1cccc2ccccc12 (single isomer, unassigned; isomer B) | 0.2 | 
26 | O=S(=O)(NC[C@H](O)CN1CCCC1C1CC1)c1cccc2ccccc12 (single isomer, unassigned; isomer B) | 0.501 | 
27 | CCC1CCCN1C[C@@H](O)CNS(=O)(=O)c1cccc2ccccc12 (single isomer, unassigned; isomer B) | 1.58 | 
28 | CC(C)CC1CCCN1C[C@@H](O)CNS(=O)(=O)c1cccc2ccccc12 (single isomer, unassigned; isomer B) | 2.51 | 
29 | CC(C)C1CCCN1C[C@@H](O)CNS(=O)(=O)c1cccc2ccccc12 (single isomer, unassigned; isomer B) | 0.2 | 
30 | O=S(=O)(NC[C@H](O)CN1CCCC1C1CC1)c1cccc2ccccc12 (stereo in doubt) | 1.58 | 
31 | CC(C)C1CCCCN1C[C@@H](O)CNS(=O)(=O)c1cccc2ccccc12 (stereo in doubt) | 0.631 | 
